In US10081606B2, “Heteroaryl compounds and uses thereof” (Celgene CAR LLC, priority 2010, dated 2018):
Where two headings read alike, the source gives them in different places.

Experiments:
[1] = molecular target: EGFR delE746-A750 (HCC827 cells) (Homo sapiens (Human), UniProt P00533, DEL746-750); experiment: EGFR signaling immunoblot (1 hr) in HCC827 cells; format: cell-based; conditions: signaling EC50, WT (A431) vs HCC827
Method: (§1) A431 human epidermoid carcinoma, H1975 human NSCLC and HCC827 human NSCLC adenocarcinoma cells were obtained from the American Type Culture Center (Manassas, Va.). A431 cells were grown in DMEM (Invitrogen, Carlsbad, Calif.) supplemented with 10% FBS (HyClone, South Logan, Utah) and 1% Penicillin-Streptomycin (P/S, Lonza, Walkersville, Md.).
(§2) All primary antibodies were obtained from Cell Signaling (Danvers, Mass.) and used at 1:1000. Secondary antibodies were used at 1:10,000. Goat anti-mouse IgG IRDye 800CW antibody was obtained from LiCor Biosciences (Lincoln, Nebr.) and goat anti-rabbit IgG Alexa Fluor 680 was obtained from Invitrogen.
(§3) Cells were grown in 12-well plates (Corning, Coring, N.Y.) to 90% confluence and then incubated in low-serum (0.1% FBS) media for 16-18 hr. […] A431 cells were then stimulated with 50 ng/ml EGF (Peprotech, Rocky Hill, N.J.) for 15 min. After treatment, cell monolayers were washed with cold PBS (Invitrogen) and immediately lysed by scrapping into 60 uL cold Cell Extraction Buffer (Invitrogen) supplemented with Complete Protease inhibitors (Roche, Indianapolis, Ind.) and PhosphoSTOP (Roche) phosphatase inhibitors.
(§4) Phospho-protein signals were quantitated using Odyssey Infrared Imaging (Li-Cor Biosciences).
Blots were normalized as indicated above. […]

[2] = system: H1975 cells (EGFR L858R/T790M); experiment: Cell proliferation (CellTiter Glo, 72 hr), H1975; format: cell-based, human; conditions: for GI50: Homo sapiens, NCI-H1975; for Ratio WT/mutant: proliferation GI50, WT (A431) vs H1975
Method: as §1
(§5) Growth inhibition (GI50) values were determined by Graph Pad Prism.

[3] = system: HCC827 cells (EGFR delE746-A750); experiment: Cell proliferation (CellTiter Glo, 72 hr), HCC827; format: cell-based, human; conditions: for GI50: Homo sapiens; for Ratio WT/mutant: proliferation GI50, WT (A431) vs HCC827
Method: as §1, §5

[4] = molecular target: EGFR L858R/T790M (H1975 cells) (Homo sapiens (Human), UniProt P00533, L858R/T790M); experiment: EGFR signaling immunoblot (1 hr) in H1975 cells; format: cell-based; conditions: signaling EC50, WT (A431) vs H1975
Method: as §1, §2, §3, §4
Blots were normalized as indicated above. […] Normalized data was fitted using a sigmoidal curve analysis program (Graph Pad Prism version 5) with variable Hill slope to determine the EC50 values.

A431 cells (WT EGFR) = experiment: Cell proliferation (CellTiter Glo, 72 hr), A431; format: cell-based; conditions: Homo sapiens, A-431
Method: as §1, §5

pEGFR in H1975 cells = pEGFR in H1975 cells (Homo sapiens (Human), UniProt P00533, L858R/T790M); conditions: 500 nM for 1 hr, 0-24 hr
EGFR T790M/L858R [5] = molecular target: T1, EGFR T790M/L858R (Homo sapiens (Human), UniProt P00533, L858R/T790M); conditions: for covalent modification of EGFR T790M/L858R: MS analysis
EGFR T790M/L858R [6] = molecular target: T1, EGFR T790M/L858R; experiment: Omnia biochemical assay, EGFR-T790M/L858R; conditions: biochemical IC50, WT EGFR vs T790M/L858R
[7] = H1975 cells, 72 hr, read-out: H1975 GI50
[8] = Table 2, H1975 cells (L858R/T790M), read-out: Comparative GI50, H1975
[9] = HCC827 cells, 72 hr, read-out: HCC827 GI50
[10] = Table 2, HCC827 cells (delE746-A750), read-out: Comparative GI50, HCC827
[11] = A431 cells, 72 hr, read-out: WT EGFR GI50
[12] = Table 2, A431 cells (WT EGFR), read-out: Comparative GI50, A431

| GI50 [2, 7] | GI50 [3, 9] | GI50 (A431 cells (WT EGFR); [11]) | Structure (SMILES) | Ratio WT/mutant [2] | Ratio WT/mutant [3] | further results |
| --- | --- | --- | --- | --- | --- | --- |
| 100 to 500 nM | 10 to 100 nM | > 1000 nM | C=CC(=O)Nc1cccc(Nc2nc(Nc3ccccc3OC)ncc2C(F)(F)F)c1 [Compound I-1, N-(3-(2-(2-methoxyphenylamino)-5-(trifluoromethyl)pyrimidin-4-ylamino)phenyl)acrylamide] | >10 | >20 | Ratio WT/mutant [1]: >50; GI50 [2, 8]: 100 to 500 nM; GI50 [3, 10]: 10 to 100 nM; Ratio WT/mutant [4]: >50; GI50 (A431 cells (WT EGFR); [12]): > 1000 nM; duration of action after washout (pEGFR inhibition) (pEGFR in H1975 cells): prolonged duration of action; time to complete modification of EGFR T790M/L858R (EGFR T790M/L858R [5]; 10-fold excess of compound): ≤ 30 min; mass shift as percent of compound mass (EGFR T790M/L858R [5]; 10-fold excess of compound, MALDI): 113%; covalent modification of EGFR T790M/L858R (EGFR T790M/L858R [5]): completely modifies |
| 100 to 500 nM | 100 to 500 nM | > 1000 nM | C=CC(=O)Nc1cccc(Nc2nc(Nc3ccc(OC)c(OC)c3OC)ncc2Cl)c1 [Compound I-4, N-(3-(5-chloro-2-(2,3,4-trimethoxyphenylamino)pyrimidin-4-ylamino)phenyl)acrylamide] |  |  |  |
| > 1000 nM | 100 to 500 nM | > 1000 nM | C=CC(=O)Nc1cccc(Nc2nc(Nc3ccc(OC)c(OC)c3OC)ncc2Br)c1 [Compound I-5, N-(3-(5-bromo-2-(2,3,4-trimethoxyphenylamino)pyrimidin-4-ylamino)phenyl)acrylamide] | >1 | >20 | Ratio WT/mutant [4]: >50 |
| 500 to 1000 nM | 500 to 1000 nM | > 1000 nM | C=CC(=O)Nc1cccc(Oc2nc(Nc3cccc(OC)c3OC)ncc2Br)c1 [Compound I-6, N-(3-(5-bromo-2-(2,3-dimethoxyphenylamino)pyrimidin-4-yloxy)phenyl)acrylamide] | >1 | >1 |  |
| > 1000 nM | 100 to 500 nM | > 1000 nM | C=CC(=O)Nc1cccc(Oc2nc(Nc3ccc(OC)c(OC)c3OC)ncc2Br)c1 [Compound I-8, N-(3-(5-bromo-2-(2,3,4-trimethoxyphenylamino)pyrimidin-4-yloxy)phenyl)acrylamide] |  |  |  |
| 100 to 500 nM | 100 to 500 nM | > 1000 nM | C=CC(=O)Nc1cccc(Oc2nc(Nc3ccc(OC)cc3OC)ncc2C(F)(F)F)c1 [Compound I-9, N-(3-(2-(2,4-dimethoxyphenylamino)-5-(trifluoromethyl)pyrimidin-4-yloxy)phenyl)acrylamide] |  |  |  |
| 100 to 500 nM | 100 to 500 nM | > 1000 nM | C=CC(=O)Nc1cccc(Oc2nc(Nc3ccc(OC)c(OC)c3OC)ncc2C(F)(F)F)c1 [Compound I-10, N-(3-(5-(trifluoromethyl)-2-(2,3,4-trimethoxyphenylamino)pyrimidin-4-yloxy)phenyl)acrylamide] | >10 | >10 | Ratio WT/mutant [4]: >50 |
| 100 to 500 nM | 10 to 100 nM | > 1000 nM | C=CC(=O)Nc1cccc(Nc2nc(Nc3ccc(OC)c(OC)c3OC)ncc2C(F)(F)F)c1 [Compound I-11, N-(3-(5-(trifluoromethyl)-2-(2,3,4-trimethoxyphenylamino)pyrimidin-4-ylamino)phenyl)acrylamide] | >10 | >40 | Ratio WT/mutant [1]: >5; GI50 [2, 8]: 100 to 500 nM; GI50 [3, 10]: 10 to 100 nM; Ratio WT/mutant [4]: >50; GI50 (A431 cells (WT EGFR); [12]): > 1000 nM |
| 500 to 1000 nM | 100 to 500 nM | > 1000 nM | C=CC(=O)Nc1cccc(Oc2nc(Nc3ccc(OC)cc3OC)ncc2Br)c1 [Compound I-13, N-(3-(5-bromo-2-(2,4-dimethoxyphenylamino)pyrimidin-4-yloxy)phenyl)acrylamide] |  |  |  |
|  |  |  | C=CC(=O)Nc1cccc(Nc2nc(Nc3cccc(OC)c3OC)ncc2Br)c1 [Compound I-14, N-(3-(5-bromo-2-(2,3-dimethoxyphenylamino)pyrimidin-4-ylamino)phenyl)acrylamide] |  |  | Ratio WT/mutant (EGFR T790M/L858R [6]): >50 |
| > 1000 nM | 100 to 500 nM | > 1000 nM | C=CC(=O)Nc1cccc(Oc2nc(Nc3ccc(OC)cc3OC)ncc2Cl)c1 [Compound I-15, N-(3-(5-chloro-2-(2,4-dimethoxyphenylamino)pyrimidin-4-yloxy)phenyl)acrylamide] |  |  |  |
| > 1000 nM | 500 to 1000 nM | > 1000 nM | C=CC(=O)Nc1cccc(Nc2nc(Nc3cccc(OC)c3OC)ncc2C(F)(F)F)c1 [Compound I-16, N-(3-(2-(2,3-dimethoxyphenylamino)-5-(trifluoromethyl)pyrimidin-4-ylamino)phenyl)acrylamide] |  |  |  |
|  |  |  | C=CC(=O)Nc1cccc(Oc2nc(Nc3cccc(OC)c3OC)ncc2Cl)c1 [Compound I-17, N-(3-(5-chloro-2-(2,3-dimethoxyphenylamino)pyrimidin-4-yloxy)phenyl)acrylamide] |  |  | Ratio WT/mutant (EGFR T790M/L858R [6]): >35 |
| > 1000 nM | 500 to 1000 nM | > 1000 nM | C=CC(=O)Nc1cccc(Nc2nc(Nc3ccccc3OC)ncc2Cl)c1 [Compound I-18, N-(3-(5-chloro-2-(2-methoxyphenylamino)pyrimidin-4-ylamino)phenyl)acrylamide] | >1 | >5 |  |
| > 1000 nM | 100 to 500 nM | > 1000 nM | C=CC(=O)Nc1cccc(Oc2nc(Nc3ccccc3OC)ncc2F)c1 [Compound I-19, N-(3-(5-fluoro-2-(2-methoxyphenylamino)pyrimidin-4-yloxy)phenyl)acrylamide] | >1 | >10 |  |
| > 1000 nM | 100 to 500 nM | > 1000 nM | C=CC(=O)Nc1cccc(Nc2nc(Nc3ccc(OC)cc3OC)ncc2Br)c1 [Compound I-20, N-(3-(5-bromo-2-(2,4-dimethoxyphenylamino)pyrimidin-4-ylamino)phenyl)acrylamide] | >1 | >10 |  |
| > 1000 nM | 500 to 1000 nM | > 1000 nM | C=CC(=O)Nc1cccc(Nc2nc(Nc3ccc(OC)cc3OC)ncc2Cl)c1 [Compound I-21, N-(3-(5-chloro-2-(2,4-dimethoxyphenylamino)pyrimidin-4-ylamino)phenyl)acrylamide] | >1 | >5 | Ratio WT/mutant [4]: >5 |
| 500 to 1000 nM | 500 to 1000 nM | > 1000 nM | C=CC(=O)Nc1cccc(Nc2nc(Nc3ccccc3OC)ncc2Br)c1 [Compound I-22, N-(3-(5-bromo-2-(2-methoxyphenylamino)pyrimidin-4-ylamino)phenyl)acrylamide] |  |  |  |

| Structure (SMILES) | GI50 [2, 7] | GI50 [3, 9] | GI50 (A431 cells (WT EGFR); [11]) | Ratio WT/mutant [2] | Ratio WT/mutant [3] | further results |
| --- | --- | --- | --- | --- | --- | --- |
| C=CC(=O)Nc1cccc(Oc2nc(Nc3ccccc3OC)ncc2C(F)(F)F)c1 [Compound I-2, N-(3-(2-(2-methoxyphenylamino)-5-(trifluoromethyl)pyrimidin-4-yloxy)phenyl)acrylamide] | > 1000 nM | 100 to 500 nM | > 1000 nM |  |  | duration of action after washout (pEGFR inhibition) (pEGFR in H1975 cells): prolonged duration of action; covalent modification of EGFR T790M/L858R (EGFR T790M/L858R [5]): covalently modify |
| C=CC(=O)Nc1cccc(Oc2nc(Nc3cccc(OC)c3OC)ncc2C(F)(F)F)c1 [Compound I-23, N-(3-(2-(2,3-dimethoxyphenylamino)-5-(trifluoromethyl)pyrimidin-4-yloxy)phenyl)acrylamide] | > 1000 nM | > 1000 nM | > 1000 nM |  |  |  |
